{"source": "patent US8420621B2", "about": "“Methods of using gamma cyclodextrin to control blood glucose and insulin secretion” (Abbott Laboratories, priority 2004, dated 2013)", "test_system": "male fatty Zucker fa/fa rats", "test": "Meal glucose tolerance test, postprandial glycemic response to a carbohydrate challenge", "format": "in vivo, rat", "excerpt": "The objective of the animal study was to evaluate the postprandial glycemic response of male fatty Zucker fa/fa rats to a carbohydrate challenge consisting of gamma-cyclodextrin or maltodextrin.\nTwenty male fatty Zucker fa/fa rats were obtained from Harlan (Indianapolis, Ind., USA). At the time of testing, rats weighed ˜450 grams. Rats were individually housed in microisolator cages on dry bedding and were given ad libitum access to water and non-purified rat diet (pelletted; 8640 Harlan Teklad 22/5 Rodent Diet; Harlan Teklad, Madison, Wis., USA). The housing facility was maintained at 19-23° C., 30-70% relative humidity, and 12-hour light-dark cycle.\nTest carbohydrates were evaluated in a randomized crossover design with a 7-day washout period between each meal glucose tolerance test (MGTT). Every rat received each treatment. Rats were routinely fed the non-purified diet. After overnight food deprivation, rats were orally fed test meals as a solution. Rats consumed the test meal within 1 minute. Blood samples were collected from the tail vein and immediately analyzed for plasma glucose by the glucose oxidase method utilizing a Precision G Blood Glucose Testing System (Medisense, Inc., Bedford, Mass., USA) before (0 minutes) and 30, 60, 90, 120, and 180 minutes postprandial. Rats had free access to water throughout the […].\nLodex 15® (maltodextrin) was obtained from Cerestar USA (Hammond, Ind., USA) with a dextrose equivalence (DE) of 15. Gamma-cyclodextrin (Wacker Cavamax W8) was obtained from Wacker Biochem Corp., Müchen, Germany. Carbohydrates were made into 500 g/L solutions with water. Each solution was heated in a microwave for 30 seconds to completely solubilize the carbohydrate solutions 1 hour before testing. Test meal volume was ˜1 mL and was adjusted such that each rat was delivered an equivalent carbohydrate challenge (1.0 g/kg body weight)."}
{"smiles": "OC[C@H]1O[C@@H]2O[C@H]3[C@H](O)[C@@H](O)[C@@H](O[C@H]4[C@H](O)[C@@H](O)[C@@H](O[C@H]5[C@H](O)[C@@H](O)[C@@H](O[C@H]6[C@H](O)[C@@H](O)[C@@H](O[C@H]7[C@H](O)[C@@H](O)[C@@H](O[C@H]8[C@H](O)[C@@H](O)[C@@H](O[C@H]9[C@H](O)[C@@H](O)[C@@H](O[C@H]1[C@H](O)[C@H]2O)O[C@@H]9CO)O[C@@H]8CO)O[C@@H]7CO)O[C@@H]6CO)O[C@@H]5CO)O[C@@H]4CO)O[C@@H]3CO", "note": "[Gamma-Cyclodextrin, Gamma-cyclodextrin]", "values": [{"measurement": "Change from baseline in plasma glucose, Change@ 0 min", "setting": "0 min, 1.0 g/kg body weight oral", "result": 0}, {"measurement": "Change from baseline in plasma glucose, Change@ 30 min", "setting": "30 min, 1.0 g/kg body weight oral", "result": "52.0 ± 9.4"}, {"measurement": "Plasma glucose, 30 min", "setting": "30 min postprandial, 1.0 g/kg body weight oral", "result": "165.6 ± 10.6"}, {"measurement": "Change from baseline in plasma glucose, Change@ 60 min", "setting": "60 min, 1.0 g/kg body weight oral", "result": "48.1 ± 5.5"}, {"measurement": "Plasma glucose, 60 min", "setting": "60 min postprandial, 1.0 g/kg body weight oral", "result": "161.8 ± 7.8"}, {"measurement": "Change from baseline in plasma glucose, Change@ 90 min", "setting": "90 min, 1.0 g/kg body weight oral", "result": "38.0 ± 4.1"}, {"measurement": "Plasma glucose, 90 min", "setting": "90 min postprandial, 1.0 g/kg body weight oral", "result": "151.6 ± 7.0"}, {"measurement": "Change from baseline in plasma glucose, Change@ 120 min", "setting": "120 min, 1.0 g/kg body weight oral", "result": "39.4 ± 4.3"}, {"measurement": "Plasma glucose, 120 min", "setting": "120 min postprandial, 1.0 g/kg body weight oral", "result": "153.1 ± 6.5"}, {"measurement": "Change from baseline in plasma glucose, Change@ 180 min", "setting": "180 min, 1.0 g/kg body weight oral", "result": "28.9 ± 5.3"}, {"measurement": "Plasma glucose, 180 min", "setting": "180 min postprandial, 1.0 g/kg body weight oral", "result": "142.6 ± 6.4"}, {"measurement": "Glucose concentration compared to consumption of maltodextrin", "setting": "at 60 and 90 minutes, P<0.05", "result": "lower"}, {"measurement": "Plasma glucose, 0 min", "setting": "baseline before test meal, 1.0 g/kg body weight oral, mean ± spread", "result": "113.6 ± 4.2"}, {"measurement": "Glycemic response relative to a comparable amount of Lodex 15", "setting": "oral, 1.0 g/kg, after heat treatment of the solution", "result": "blunted glycemic response"}]}
